The values that follow come from article PMC10135964, “One Scaffold, Two Conformations: The Ring-Flip of the Messenger InsP8 Occurs under Cytosolic Conditions” (Biomolecules, 2023).

Molecules are shown by their SMILES. pKd: −log10 of the molar value. Read-outs that look alike come from different tables or passages of the source.

A short description of data set [1]: 1H,13C BIRD-HMQC NMR quantification of axial vs. equatorial conformer. It counts as physicochemical. As to conditions: pH* 7.5, 5 equiv. Ca2+, 130 mM KCl, 10 mM NaCl.
Data set [2] has as its target T1, yeast VTC2 SPX domain (residues 1–182) (Saccharomyces cerevisiae, UniProt P43585).
T1 construct: The VTC2 SPX domain (residues 1–182) was expressed with a C-terminal His6-tag; His6 (C); made in house
T1 sequence (P43585 1-182): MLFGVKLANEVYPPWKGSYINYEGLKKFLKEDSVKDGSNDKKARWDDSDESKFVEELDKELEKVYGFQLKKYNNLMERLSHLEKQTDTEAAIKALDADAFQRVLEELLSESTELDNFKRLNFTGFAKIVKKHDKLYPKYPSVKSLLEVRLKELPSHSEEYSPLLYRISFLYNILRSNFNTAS
In words: Isothermal titration calorimetry of InsP8 binding to the VTC2 SPX domain. As to conditions: 25 °C, pH 7.4, 150 mM KCl, 40 mM NaCl, mean of three replicates; for pKd: read-out: dissociation constant Kd. The procedure:
The VTC2 SPX domain (residues 1–182) was expressed with a C-terminal His6-tag and purified by Ni-affinity and size-exclusion chromatography, as previously published.
Protein stocks were diluted to 300 µL with final buffer conditions: 25 mM HEPES pH 7.4, 150 mM KCl, 40 mM NaCl, 0.5 mM TCEP (ITC buffer). The exact protein concentration for each replicate was determined separately by Bradford assay. InsP8 was diluted to 500 µM in ITC buffer. For binding experiments in the presence of magnesium ions, both dilution buffers were supplemented with MgCl2 to give a final concentration of 1 mM after dilution.
ITC experiments were carried out at 25 °C in a MicroCal PEAQ-ITC calorimeter (Malvern Panalytical GmbH, Kassel, Germany), with ca. 50 µM protein in the cell and 500 µM ligand in the syringe. InsP8 was titrated into the solution in nineteen 2 µL-steps. Spacing between injections was 150 s.
The corresponding instrument software (MicroCal PEAQ-ITC Analysis) was used for baseline correction, peak integration, data fitting and determination of binding parameters.

By pKd is commonly meant −log10 of the Kd, conventionally taken in molar units.

Take `O=P(O)(O)O[C@@H]1[C@@H](OP(=O)(O)O)[C@H](OP(=O)(O)OP(=O)(O)O)[C@@H](OP(=O)(O)O)[C@H](OP(=O)(O)OP(=O)(O)O)[C@@H]1OP(=O)(O)O` [InsP8, 1,5(PP)2-InsP4]: the “proportion in axial conformation” value in data set [1] is on record as “About 15%”. Further, in data set [2] (1 mM MgCl2), the ΔH of binding is -5.9 kcal/mol, the “−TΔS of binding” value was -3.3 kcal/mol and the negative-log Kd (pKd) is 6.69. Also, in data set [2] (without divalent ions), the ΔH of binding is -3.5 kcal/mol, the “−TΔS of binding” value was -5.2 kcal/mol and the pKd was 6.43.
